# Laboratory results: patent US20200337993A1, “INTRACANALICULAR HYDROGEL INSERTS FOR THE DELIVERY OF ANESTHETICS” (Ocular Therapeutix, Inc., priority 2019, published 2020)
# Where two headings read alike, the source gives them in different places.
# Columns and labels:
# [1] = Bupivacaine concentrations in tear fluid after intracanalicular administration (LC/MS of Schirmer strip samples); format: in vivo, beagle dogs; details: female, beagle, dog, other: intracanalicular, 160 μg; for concentration at 2 day: Day 2, N=3, intracanalicular Inventive Composition insert; for concentration at 3 day: Day 3, N=6, intracanalicular Inventive Composition insert; for concentration at 4 day: Day 4, N=6, intracanalicular Inventive Composition insert; for concentration at 5 day: Day 5, N=3, intracanalicular Inventive Composition insert
# Method: Corneal wounds were created in both eyes (OU) of ten female beagle dogs on Day 0 using epithelial debridement. Animals were post-operatively monitored and treated with eye drops. The Inventive Composition (IC) containing approximately 160 μg of bupivacaine was inserted into the lower or upper lid punctum of one eye of all ten dogs on Day 0 after corneal wounding and removed on Day 7 after wounding. Clinical ophthalmic examinations (slit-lamp biomicroscopy) were conducted daily on weekdays through Day 7. Fluorescein staining was performed and slit-lamp photographs were taken on Days 0, 3, 5, and 7 (Group 1) or on Days 0, 2, 4, and 7 (Group 2). Corneal esthesiometry was performed at baseline and on Days 0, 3-7, 10-14, 31-35, and 38-42 (Group 1) or on Days 0-4, 7-11, 14, 28-32, and 35-39 (Group 2). General health observations and gross ocular observations were performed daily from Day 1 through Day 11 (Group 1) or Day 8 (Group 2). Body weights were recorded prior to dosing and on Day 7. Tears were collected on Days 3, 4, and 5 (Group 1) or on Days 1, 2, 3, and 4 (Group 2). The two groups were staggered in order to collect tear film samples on days 1, 2, 3, 4 and 5 using Schirmer test strips. Tear film samples were collected in the morning prior to administration of drops, in order to avoid dilution of the samples. Pre and post weights were collected on the tear film strips, and samples were sent to PharmOptima, LLC (Portage, Mich.) for bioanalysis via LC/MS. The PK portion of the study measured concentrations of bupivacaine released from the Inventive Composition into the tear fluid over 5 days following intracanalicular administration in beagle dogs and results are presented in Table 3. Tear fluid samples were collected pre-drop administration to prevent dilution of the bupivacaine concentrations. The PK profile indicates elevated concentrations of bupivacaine in the tear fluid through 4 days with a decrease observed at 5 days.
# [2] = In vitro release of bupivacaine from the Inventive Composition in PBS, pH 7.4 at 37° C.; format: physicochemical
# [3] = read-out: Bupivacaine concentration in tear fluid, Average
# [4] = read-out: Bupivacaine concentration in tear fluid, Maximum
# [5] = read-out: Bupivacaine concentration in tear fluid, Median
# [6] = read-out: Bupivacaine concentration in tear fluid, Minimum
smiles,measurement,setting,value
"CCCCN1CCCCC1C(=O)Nc1c(C)cccc1C (stereo not shown) [Bupivacaine, bupivacaine]",concentration at 1 day,"[1]; Day 1, N=3, intracanalicular Inventive Composition insert (approx. 160 μg bupivacaine), Groups 1 and 2, read-out: Bupivacaine concentration in tear fluid, Average",780 ng/mL
same,concentration at 1 day,"[1]; Day 1, N=3, intracanalicular Inventive Composition insert, read-out: Bupivacaine concentration in tear fluid, Maximum",1520 ng/mL
same,concentration at 1 day,"[1]; Day 1, N=3, intracanalicular Inventive Composition insert, read-out: Bupivacaine concentration in tear fluid, Median",550 ng/mL
same,concentration at 1 day,"[1]; Day 1, N=3, intracanalicular Inventive Composition insert, read-out: Bupivacaine concentration in tear fluid, Minimum",280 ng/mL
same,concentration at 2 day,[1]; [3],380 ng/mL
same,concentration at 2 day,[1]; [4],770 ng/mL
same,concentration at 2 day,[1]; [5],230 ng/mL
same,concentration at 2 day,[1]; [6],150 ng/mL
same,concentration at 3 day,[1]; [3],740 ng/mL
same,concentration at 3 day,[1]; [4],1520 ng/mL
same,concentration at 3 day,[1]; [5],590 ng/mL
same,concentration at 3 day,[1]; [6],100 ng/mL
same,concentration at 4 day,[1]; [3],570 ng/mL
same,concentration at 4 day,[1]; [4],1180 ng/mL
same,concentration at 4 day,[1]; [5],450 ng/mL
same,concentration at 4 day,[1]; [6],80 ng/mL
same,concentration at 5 day,[1]; [3],250 ng/mL
same,concentration at 5 day,[1]; [4],430 ng/mL
same,concentration at 5 day,[1]; [5],230 ng/mL
same,concentration at 5 day,[1]; [6],100 ng/mL
same,Bupivacaine Release Rate,[2]; in vitro sampling period 0-1 hours (burst phase),14.6 µg/h
same,Bupivacaine Release Rate,[2]; in vitro sampling period 1-18 hours,3.4 µg/h
same,Bupivacaine Release Rate,[2]; in vitro sampling period 18-26 hours,1.5 µg/h
same,Bupivacaine Release Rate,[2]; in vitro sampling period 26-42 hours,1.1 µg/h
same,Bupivacaine Release Rate,[2]; in vitro sampling period 42-68 hours,1.0 µg/h
same,Bupivacaine Release Rate,[2]; in vitro sampling period 68-93 hours,0.6 µg/h
same,Bupivacaine Release Rate,[2]; in vitro sampling period 93-115 hours,0.4 µg/h
same,Bupivacaine Release Rate,[2]; in vitro sampling period 115-168 hours,0.1 µg/h
